Entries after “also recorded” stand apart in the source; their conditions may differ. Where two headings read alike, the source gives them in different places.
Tests used:
[1] = tested on: human ovarian cancer OVCAR3; experiment: Human ovarian cancer OVCAR3 model, tumor volume; format: in vivo
Method: In an exemplary human ovarian cancer OVCAR3 model, Azenosertib was administered at a dose of about 100 mg/kg at intermittent dosing regimen of 3 cycles of 7 days on/7 days off (7/7). Tumor volume change was plotted in FIG. 1I and corresponding change in body weight in FIG. 1J until about 32 days post-initiation of treatment.
In an exemplary human ovarian cancer OVCAR3 model, Azenosertib was administered based on an intermittent dosing regimen of 5 days on/2 days off (5/2) for a once daily dose (as compared to a twice daily dose (e.g., 80 mg/kg once daily vs. 40 mg/kg twice daily and 100 mg/kg once daily vs. 50 mg/kg twice daily).
Tumor volume was measured as shown in FIG. 2A and corresponding changes in body weight are shown in FIG. 2B until about 22 days post initiation of treatment.
In an exemplary human ovarian cancer OVCAR3 model, Azenosertib was administered at two different doses in each of two intermittent dosing regimen. Briefly, Azenosertib was administered 5 cycles of a 5 days on/2 days off (5/2) intermittent regimen at a dose of about 80 mg/kg (cumulative dose of 400 mg) and 90 mg/kg (cumulative dose of 450 mg) and also 4 cycles of a 4 days on/3 days off (4/3) intermittent regimen at 90 mg/kg (cumulative dose of 450 mg) and 100 mg/kg (cumulative dose of 500 mg). The results were compared with a continuous dose of 60 mg/kg for 22 days (cumulative dose of 300 mg).
Changes in tumor volume are shown in FIG. 2C and corresponding change in body weight in FIG. 2D until about 24 days post-initiation of treatment.
In an exemplary human ovarian cancer OVCAR3 model, Azenosertib was administered at 100 mg/kg in 3 cycles each of two intermittent dosing regimen, 4 days on/3 days off (4/3) or 3 days on/4 days off (3/4). Further, a continuous dosing of 60 mg/kg was administered for 24 days.
At a dose of 3 cycles of about 100 mg/kg for 4/3, the cumulative dose was 1200 mg, while at a dose of 3 cycles of about 100 mg/kg for 3/4, the cumulative dose was 900 mg.
Azenosertib and the PARPi, talazoparib, were evaluated using OVCAR-3 models on an intermittent dosing schedule. […] In addition, the alternating dosing schedule may potentially abrogate overlapping toxicity with WEE1 inhibitor and PARPi coadministration.
In an exemplary human ovarian cancer OVCAR3 animal model, Azenosertib was administered at an intermittent dosing of 60 mg/kg or 80 mg/kg at 3 cycles of 5 days on/2 days off, while Paclitaxel and Carboplatin were also each administered at respectively 20 mg/kg and 25 mg/kg, once a week, for 3 weeks In addition, the combinations of Azenosertib and Paclitaxel and of Azenosertib and Carboplatin were administered in accordance with the same dosing regimens and doses as their respective monotherapies.

Half-life of Azenosertib = format: in vivo; conditions: plasma
[2] = Clinical exposure (plasma PK) with continuous and intermittent 5/2 dosing; format: in vivo, human; conditions: for Cmax / Tmax / AUC: human, plasma, oral; for AUC: read-out: AUC24
Method: This example illustrates the clinical exposure achieved with a continuous and an intermittent 5 days on/2 days off (5/2) dosing regimen. A comparison is also made between a once daily dosing regimen and a twice daily dosing regimen. In some embodiments, Azenosertib was administered with food and/or antiemetic agents.
The results are shown as follows: FIG. 5A is a graph of Azenosertib plasma concentration from subjects receiving a 5/2 350 mg once daily or 175 mg twice daily on day 1, cycle 1. FIG. 5B is a graph of Azenosertib plasma concentration from subjects receiving a 5/2 350 mg once daily or 175 mg twice daily on day 11/12, cycle 1. FIG. 5C is a graph of Azenosertib plasma concentration from subjects receiving a continuous dosing regimen relative to subjects receiving a 5/2 intermittent 350 mg once daily dosing regimen on day 1, cycle 1. FIG. 5D is a graph of Azenosertib plasma concentration from subjects receiving a continuous dosing regimen relative to subjects receiving a 5/2 intermittent 350 mg once daily dosing regimen on day 11/12 or 15 of cycle 1. FIG. 5E is a graph of Azenosertib plasma concentration from subjects receiving a continuous dosing regimen relative to subjects receiving a 5/2 intermittent 175 mg twice daily dosing regimen on day 1, cycle 1. FIG. 5F is a graph of Azenosertib plasma concentration from subjects receiving a continuous dosing regimen relative to subjects receiving a 5/2 intermittent 175 mg twice daily dosing regimen on day 11/12 or 15 of cycle 1.

[3] = 175 mg, 175 twice daily, 5/2, steady state (Day 12/11)
[4] = 175 mg, 175 twice daily, Continuous, mean steady state (Day 12/11)
[5] = 300 mg, 300 once daily, Continuous, mean steady state (Day 12/11)
[6] = 350 mg, 350 once daily, 5/2, mean steady state (Day 12/11)
[7] = 350 mg, 350 once daily, Continuous, mean steady state (Day 12/11)

half-life (Half-life of Azenosertib): 8 h | Cmax [2, 3]: 1470 ng/mL | Tmax [2, 3]: 1 h | AUC [2, 3]: 13300 ng·h/mL | Cmax [2, 4]: 738 ng/mL | Tmax [2, 4]: 2.3 h | AUC [2, 4]: 10800 ng·h/mL | Cmax [2, 5]: 1090 ng/mL | Tmax [2, 5]: 2.8 h | AUC [2, 5]: 10800 ng·h/mL | Cmax [2, 6]: 1490 ng/mL | Tmax [2, 6]: 3 h | AUC ([2]; 350 mg, 350 once daily, 5/2, steady state (Day 12/11)): 10300 to 15800 ng·h/mL | Cmax [2, 7]: 840 ng/mL | Tmax [2, 7]: 2.2 h | AUC [2, 7]: 7140 ng·h/mL
Structure (SMILES): C=CCn1c(=O)c2cnc(Nc3ccc(N4CCN(C)CC4)cc3)nc2n1-c1ccc2c(n1)[C@@](O)(CC)CC2 [Azenosertib, (R)-2-allyl-1-(7-ethyl-7-hydroxy-6,7-dihydro-5H-cyclopenta[b]pyridin-2-yl)-6-((4-(4-methylpiperazin-1-yl)phenyl)amino)-1,2-dihydro-3H-pyrazolo[3,4-d]pyrimidin-3-one]
tumor volume, intermittent 4/3 or 3/4 vs continuous dosing ([1]; 100 mg/kg 3 cycles 4/3 or 3/4 vs 60 mg/kg continuous for 24 days): higher efficacy than continuous dosing | efficacy of 4/3 regimen vs 3/4 regimen ([1]; 100 mg/kg, 3 cycles, 4/3 = higher cumulative dose): slightly higher efficacy | tumor volume, once daily vs twice daily dose ([1]; 5/2, 80 mg/kg once daily vs 40 mg/kg twice daily, 100 mg/kg once daily vs 50 mg/kg twice daily, same cumulative dose): more efficacious relative to each twice daily dose; also recorded: more efficacious relative to a twice daily dose | tumor volume, intermittent 5/2 and 4/3 vs continuous dose ([1]; 80, 90 mg/kg 5/2 and 90, 100 mg/kg 4/3 vs 60 mg/kg continuous, about 24 days): more efficacious than the lower continuous dose | tumor volume, 7/7 intermittent dosing regimen ([1]; about 100 mg/kg, 3 cycles of 7 days on/7 days off, about 32 days): effective in reducing tumor volume | exposure, intermittent vs continuous dose ([2]; 350 mg once daily (or 175 mg twice daily), 5/2 vs continuous): higher for intermittent vs. continuous; also recorded: comparable or better exposure
